Test results from patent publication US7759317B2, “Analgesic and anti-inflammatory compositions and methods with flavonoid glycoside-type compounds” (BMB Patent Holding Corporation, priority 2006, dated 2010).
Several values for one entry are separate records, joined by “and”; a condition that tells them apart may be missing. Equal entries are not always repeated.

Key:
[1] = test system: mouse air pouch; experiment: Inflammation Bioassay Protocol: mouse air pouch assay, carrageenan-induced, white blood cell count in exudate; format: in vivo, mice
Procedure: A mouse air pouch assay was used to determine the therapeutic effectiveness of various extracts/compounds as anti-inflammatories in the present invention.
To induce air pouches, 10-15 week old mice were injected subcutaneously on the back with 3 ml of air.
On day 2, the pouches were reinflated with 1.5 m. of air.
On day 6, inflammation was induced by injecting 1 ml of a suspension of carrageenan (2% weight/volume in calcium-free and magnesium-free phosphate buffered saline (PBS) solution) into the air pouch.
100 μL of solution including test compounds were injected with the carrageenan (additional 100 μL of PBS were injected into the controls).
After 4 hours, the mice were sacrificed by including C02 narcosis, the pouches were flushed with 2 ml of PBS, and exudates were harvested.
Exudates were diluted 1:1 with 0.015% methylene blue in PBS.
White blood cells were counted in a standard hemocytometer chamber (American Optical, Buffalo, N.Y.).

[2] = test system: capsaicin-treated hindpaw; experiment: Analgesic Bioassay Protocol: rat hindpaw withdrawal latency to radiant heat after capsaicin sensitisation; format: in vivo, Sprague-Dawley rats; conditions: n=5
Procedure: A rat hindpaw assay was used to determine the therapeutic effectiveness of various extracts/compounds as analgesics in the present invention. Sprague-Dawley rats (225-250 g, male) were anesthetized with urethane and placed on their sides on a disposable Chux pad. Both hindpaws for each rat were blackened with India ink which was allowed to dry for 10 minutes. An ELH projector lamp calibrated to a standard mW/cm was used as a pain stimulus and was condensed into an area of 5×15 mm on each hindpaw and placed perpendicular to, and 72 mm from, each hindpaw. Multiple baseline hindpaw withdrawal latency times were recorded (in seconds) for each medial and each lateral surface of each hindpaw. Subsequently, 100 μl of 1 μmolar capsaicin was applied with a pipette to cover one hindpaw of each animal and allowed to dry for 10 minutes, rendering the capsaicin-treated hindpaw hypersensitive to pain stimulus relative to the non-capsaicin treated hindpaw (and thereby decreasing the withdrawal latency period for the capsaicin-treated hindpaw relative to the non-treated hindpaw). Both hindpaws were then re-blackened with India ink which was allowed to dry for 10 minutes, and hindpaw withdrawal latencies were recorded for both the capsaicin-treated and untreated hindpaws on both the medial and lateral aspects of both hindpaws at 20, 25 and 30 minutes. […] By contrast, only minor drops in the withdrawal latency periods of the untreated hindpaws was seen, and the effect that was observed is believed to be due to the central mechanism effect of capsaicin-treatment on the other hindpaw. To determine the analgesic properties of each fraction, 100 μl of each fraction were applied to the capsaicin-treated hindpaw by pipette and permitted to dry (the untreated hindpaw was not treated with the fraction). Hindpaw withdrawal latencies were then recorded at 5, 20 and 30 minutes for both the capsaicin/fraction-treated hindpaw and the untreated hindpaw. An increase in the hindpaw withdrawal time was indicative of an analgesic effect by the applied fraction.

[3] = white blood cells in air pouch exudate, individual mice, 4 hours after carrageenan

O=c1cc(-c2ccc(O)c(O)c2)oc2cc(OC3OC(COC4OCC(O)(CO)C4O)C(O)C(O)C3O)cc(O)c12 [Compound 580, luteolin 7-(6″-β-D-apiofuranosyl)-β-D-glucopyranoside]
Average Cells (10^6/ml) ([1]; mean of five treated mice, control mice 2.67): 1.00 10^6/ml | anti-inflammatory effects, comparison with reference drugs ([1]; result in words): comparable to 0.5-1.0 mg/kg/week of chronic methotrexate, or 1.5 mg/kg acute dose of dexamethasone | Cells (10^6/ml) [1, 3]: 0.75 10^6/ml and 1.17 10^6/ml and 0.72 10^6/ml and 1.16 10^6/ml and 1.22 10^6/ml | Cells/ml [1, 3]: 7.50E+05 Cells/ml and 1.17E+06 Cells/ml and 7.20E+05 Cells/ml and 1.16E+06 Cells/ml and 1.22E+06 Cells/ml | Average Count ([1]; white blood cells, average of 4 hemocytometer chambers, individual mice, 100 μL test solution with carrageenan, exudate after 4 hours): 37.50 and 58.50 and 24.00 and 38.75 and 40.50 | Avg All Cap ([2]; average of all post-capsaicin latencies, before test substance): 6.3 s | Avg Ext 5 ([2]; latency 5 minutes after application to capsaicin-treated hindpaw, amount (mg)): 13.7 s | Avg Ext 20 ([2]; latency 20 minutes after application to capsaicin-treated hindpaw, amount (mg)): 9.6 s | Avg Cap 20 ([2]; latency 20 minutes after capsaicin, before test substance): 5.8 s | Avg Cap 25 ([2]; latency 25 minutes after capsaicin, before test substance): 7.2 s | Avg Ext 30 ([2]; latency 30 minutes after application to capsaicin-treated hindpaw, amount (mg)): 9.4 s | Avg Cap 30 ([2]; latency 30 minutes after capsaicin, before test substance): 6 s | Avg Baseline ([2]; withdrawal latency before capsaicin and before test substance): 9.3 s
